Source: patent US7713714B2, “Isolated nona- and decapeptides which bind to HLA molecules, and the use thereof” (Ludwig Institute for Cancer Research, priority 1997, dated 2010)
pEC50: −log10 of the molar value. Where two headings read alike, the source gives them in different places. Values belong to the molecule of their own block, whether it stands above or below them.

Tests used:
CTL clone M77.80 = test: 51Cr assay, recognition by Melan-A specific CTL clone M77.80; type: cell-based, human; conditions: Table IV; for EC50: read-out: Peptide [nM] 50%; for Relative activity: relative to SEQ ID NO: 2
CTL clone M77.86 = test: 51Cr assay, recognition by Melan-A specific CTL clone M77.86; type: cell-based, human; conditions: Table IV; for EC50: read-out: Peptide [nM] 50%; for Relative activity: relative to SEQ ID NO: 2
CTL clone 1.13 = test: 51Cr assay, recognition by Melan-A specific CTL clone 1.13; type: cell-based, human; conditions: Table IV; for EC50: read-out: Peptide [nM] 50%; for Relative activity: relative to SEQ ID NO: 2
TILN LAU 132 = test: 51Cr release assay, TILN recognition of peptide on T2 cells, TILN LAU 132; conditions: for pEC50: read-out:, dose response, T2 cells
TILN LAU 203 = test: 51Cr release assay, TILN recognition of peptide on T2 cells, TILN LAU 203; conditions: for pEC50: read-out:, dose response, T2 cells
HLA-A*0201 [1] = molecular target: T1, HLA-A*0201 (Homo sapiens, UniProt P04439, D140Y/D185E/D98H/E176V/E277Q/G131W/G231S/I119V/I121R/I166T/I218V/L300P/L318F/N151K/N90K/P208A/P217A/Q86G/Q94H/R138H/R169H/T345S)
[2] = system: five HLA-A*0201 restricted Melan-A specific CTL clones; test: Recognition by five HLA-A*0201 restricted Melan-A specific CTL clones, statements; type: cell-based, human; conditions: compared with SEQ ID NO: 2
[3] = system: Melan-A specific CTL clone; test: 51Cr assay, recognition by Melan-A specific CTL clone (third clone, name not given); type: cell-based, human; conditions: Table IV; for EC50: read-out: Peptide [nM] 50%; for Relative activity: relative to SEQ ID NO: 2
CTL clone 7.10 = test: 51Cr assay, recognition by Melan-A specific CTL clone 7.10; type: cell-based, human; conditions: Table IV; for EC50: read-out: Peptide [nM] 50%; for Relative activity: relative to SEQ ID NO: 2
HLA-A*0201 [4] = molecular target: T1, HLA-A*0201; conditions: relative to SEQ ID NO: 1
panel of the CTLs = test: Recognition assay dissecting the CTL panel (Example 10)
HLA-A*0201 [5] = molecular target: T1, HLA-A*0201; conditions: Table II; relative to SEQ ID NO: 2
HLA-A*0201 [6] = molecular target: T1, HLA-A*0201; remark: listed apart in the source
HLA-A*0201 [7] = molecular target: T1, HLA-A*0201; conditions: fluorescence index, 16 hours, 23° C.
[8] = Table III, relative to SEQ ID NO: 2
[9] = Table I, [nM]50% SEQ ID NO: 2 / [nM]50% test peptide
[10] = read-out: Peptide [nM] 50%, Table I, T2 targets, effector:target 30:1, concentration giving 50% of maximum activity

Molecule: CC[C@H](C)[C@H](NC(=O)CNC(=O)[C@H](CC(C)C)NC(=O)[C@H](C)NC(=O)[C@@H](N)CCC(=O)O)C(=O)NCC(=O)N[C@H](C(=O)N[C@@H](CC(C)C)C(=O)N[C@H](C(=O)N[C@H](C(=O)O)C(C)C)[C@@H](C)O)[C@@H](C)CC [SEQ ID NO: 11]
EC50 (CTL clone M77.80): 0.5 nM | EC50 (CTL clone M77.86): 0.015 nM | EC50 (CTL clone 1.13): 20 nM | pEC50 (TILN LAU 132; Table III): < 6.00 | pEC50 (TILN LAU 203; Table III): < 6.00 | stability of peptide/HLA-A*0201 complexes (HLA-A*0201 [1]): intermediate stability | recognition by the five CTL clones, in words [2]: reduced recognition for four of five | EC50 [3]: 0.015 nM | EC50 (CTL clone 7.10): 0.5 nM

Molecule: CC[C@H](C)[C@H](NC(=O)CNC(=O)[C@H](CC(C)C)NC(=O)[C@H](C)N)C(=O)NCC(=O)N[C@H](C(=O)N[C@@H](CC(C)C)C(=O)N[C@H](C(=O)N[C@H](C(=O)O)C(C)C)[C@@H](C)O)[C@@H](C)CC [SEQ ID NO: 5]
EC50 (CTL clone M77.80): > 1000 nM | EC50 (CTL clone M77.86): 90 nM | EC50 (CTL clone 1.13): > 10000 nM | pEC50 (TILN LAU 132; Table III): < 6.00 | pEC50 (TILN LAU 203; Table III): < 6.00 | stability of peptide/HLA-A*0201 complexes (HLA-A*0201 [1]): intermediate stability | EC50 [3]: > 1000 nM | EC50 (CTL clone 7.10): > 1000 nM

Molecule: CC[C@H](C)[C@H](NC(=O)CNC(=O)[C@H](CCSC)NC(=O)[C@H](C)NC(=O)[C@@H](N)CCC(=O)O)C(=O)NCC(=O)N[C@H](C(=O)N[C@@H](CC(C)C)C(=O)N[C@H](C(=O)N[C@H](C(=O)O)C(C)C)[C@@H](C)O)[C@@H](C)CC [SEQ ID NO: 12]
EC50 (CTL clone M77.80): > 1000 nM | EC50 (CTL clone M77.86): 550 nM | EC50 (CTL clone 1.13): > 10000 nM | pEC50 (TILN LAU 132; Table III): < 6.00 | pEC50 (TILN LAU 203; Table III): < 6.00 | stability of peptide/HLA-A*0201 complexes (HLA-A*0201 [1]): intermediate stability | recognition by the five CTL clones, in words [2]: recognition improved | EC50 [3]: 40 nM | EC50 (CTL clone 7.10): > 1000 nM

Molecule: CC[C@H](C)[C@H](NC(=O)CNC(=O)[C@H](CCSC)NC(=O)[C@H](C)N)C(=O)NCC(=O)N[C@H](C(=O)N[C@@H](CC(C)C)C(=O)N[C@H](C(=O)N[C@H](C(=O)O)C(C)C)[C@@H](C)O)[C@@H](C)CC [SEQ ID NO: 6]
EC50 (CTL clone M77.80): > 1000 nM | EC50 (CTL clone M77.86): > 1000 nM | EC50 (CTL clone 1.13): > 10000 nM | pEC50 (TILN LAU 132; Table III): < 6.00 | pEC50 (TILN LAU 203; Table III): < 6.00 | stability of peptide/HLA-A*0201 complexes (HLA-A*0201 [1]): intermediate stability | EC50 [3]: > 1000 nM | EC50 (CTL clone 7.10): > 1000 nM

Molecule: CC[C@H](C)[C@H](NC(=O)CNC(=O)[C@H](C)NC(=O)[C@@H](N)CCSC)C(=O)NCC(=O)N[C@H](C(=O)N[C@@H](CC(C)C)C(=O)N[C@H](C(=O)N[C@H](C(=O)O)C(C)C)[C@@H](C)O)[C@@H](C)CC [SEQ ID NO: 8]
EC50 (CTL clone M77.80): 0.5 nM | EC50 (CTL clone M77.86): 0.6 nM | EC50 (CTL clone 1.13): 80 nM | pEC50 (TILN LAU 132; Table III): 8.60 | pEC50 (TILN LAU 203; Table III): 8.10 | stability of peptide/HLA-A*0201 complexes (HLA-A*0201 [1]): unstable complexes, which decay within one hour | EC50 [3]: 200 nM | EC50 (CTL clone 7.10): 15 nM

Molecule: Glu Ala Ala Gly Ile Gly Ile Ala Thr Val [SEQ ID NO: 23]
change in competitor activity, in words (HLA-A*0201 [4]): did not result in significant changes in activity

EC50 (CTL clone M77.80): > 1000 nM | EC50 (CTL clone M77.86): 0.005 nM | EC50 (CTL clone 1.13): 200 nM | pEC50 (TILN LAU 132; Table III): 10.30 | pEC50 (TILN LAU 203; Table III): 9.00 | EC50 [3]: > 1000 nM | EC50 (CTL clone 7.10): 7 nM
Molecule: CC[C@H](C)[C@H](NC(=O)CNC(=O)[C@H](C)NC(=O)[C@H](C)NC(=O)[C@@H](N)Cc1ccccc1)C(=O)NCC(=O)N[C@H](C(=O)N[C@@H](CC(C)C)C(=O)N[C@H](C(=O)N[C@H](C(=O)O)C(C)C)[C@@H](C)O)[C@@H](C)CC [SEQ ID NO: 14]
Relative activity (CTL clone M77.80): <0.3 | Relative activity (CTL clone M77.86): 3000 | Relative activity (CTL clone 1.13): 20 | Relative activity (TILN LAU 132; [8]): 600 | Relative activity (TILN LAU 203; [8]): 60 | recognition by a fifth CTL (panel of the CTLs): not | recognition by four of the CTLs (panel of the CTLs): equally well | recognition by two other CTLs (panel of the CTLs): recognized | recognition by the five CTL clones, in words [2]: reduced recognition by the CTLs | Relative activity [3]: <0.3 | Relative activity (CTL clone 7.10): 7

Molecule: C[C@H](NC(=O)[C@@H](N)CCC(=O)O)C(=O)N[C@@H](CC(=O)O)C(=O)N1CCC[C@H]1C(=O)N[C@H](C(=O)NCC(=O)N[C@@H](Cc1c[nH]cn1)C(=O)N[C@@H](CO)C(=O)N[C@@H](Cc1ccc(O)cc1)C(=O)O)[C@@H](C)O [SEQ ID NO: 21]
Relative competitor activity (HLA-A*0201 [5]): <0.6 | binding to HLA-A*0201 compared with SEQ ID NO: 2, in words (HLA-A*0201 [6]): no binding

Molecule: Glu Ala Ala Gly Ile Gly Ile Leu Ala Val [SEQ ID NO: 24]
change in competitor activity, in words (HLA-A*0201 [4]): did not result in significant changes in activity

Molecule: Lys Leu Val Val Val Gly Ala Val Gly Val [SEQ ID NO: 20]
lysis percentage (HLA-A*0201 [6]; peptide used alone, CTL clone 7 RAS, T2 cells): 80%

Molecule: ILTVILGVL [SEQ ID NO: 4, reference compound]
relative binding activity, in words (HLA-A*0201 [7]): about the same as SEQ ID NO: 2 | Relative activity (TILN LAU 132; [9]): <1.5 × 10^−3 | EC50 (TILN LAU 132; [10]): > 10000 nM | binding to HLA-A*0201 compared with SEQ ID NO: 2, in words (HLA-A*0201 [6]): comparable to SEQ ID NO: 2 | Relative activity (TILN LAU 203; [9]): <4 × 10^−3 | EC50 (TILN LAU 203; [10]): > 10000 nM

EC50 (CTL clone M77.80): 1000 nM | EC50 (CTL clone M77.86): 0.015 nM | EC50 (CTL clone 1.13): > 10000 nM | pEC50 (TILN LAU 132; Table III): 9.00 | pEC50 (TILN LAU 203; Table III): 8.30 | EC50 [3]: > 1000 nM | EC50 (CTL clone 7.10): 35 nM
Molecule: CC[C@H](C)[C@H](NC(=O)CNC(=O)[C@H](C)NC(=O)[C@H](C)NC(=O)[C@@H](N)Cc1ccc(O)cc1)C(=O)NCC(=O)N[C@H](C(=O)N[C@@H](CC(C)C)C(=O)N[C@H](C(=O)N[C@H](C(=O)O)C(C)C)[C@@H](C)O)[C@@H](C)CC [SEQ ID NO: 13]
Relative activity (CTL clone M77.80): 0.3 | Relative activity (CTL clone M77.86): 1000 | Relative activity (CTL clone 1.13): <0.4 | Relative activity (TILN LAU 132; [8]): 30 | Relative activity (TILN LAU 203; [8]): 20 | recognition by a fifth CTL (panel of the CTLs): recognized | recognition by four of the CTLs (panel of the CTLs): equally well | recognition by two other CTLs (panel of the CTLs): not | recognition by the five CTL clones, in words [2]: reduced recognition by the CTLs | Relative activity [3]: <0.3 | Relative activity (CTL clone 7.10): 1.4
